Consider 1 molecule from patent US20090275667A1, “USE OF ALLICIN AS PRESERVATIVE, AS DISINFECTANT, AS ANTIMICROBIAL OR AS BIOCIDAL AGENT” (Stone Island Holdings Ltd, priority 2003, published 2009).

In one test the test system is Staph. Aureus. In words: Zones of Inhibition against common chicken bacteria. It counts as cell-based. Conditions: Staphylococcus aureus.
For another test, the system named is Salm. Enteriditis. The description is as above. Type of test: cell-based.
The test system of the next test is Ent. Hirae. In words: Agar inhibition test. The settings on record: equivalent to 0.0225% w/v. It counts as cell-based, Enterococcus hirae.
Test [1] concerns Paenibacillus larvae subsp. larvae. In words: MIC by broth microdilution, bee pathogens. Conditions: range 1000 ppm to 0.25 ppm. Type of test: cell-based. From the text: (§1) We tested allicia (Allisure™ Liquid) activity against several species of entomopathogenic bacteria (Paenibacillus larvae subsp. larvae, Paenibacillus larvae subsp. pulvifaciens) and fungi (Ascosphaera apis and Ascosphaera aggregata) using broth microdilution method to determine minimum inhibitory concentration (MIC) and the agar diffusion test (Kirby-Bauer) to determine zone of inhibition. Bacterial spores were isolated from the diseased honey bee larval samples. A small aliquot of heat-treated bacterial spores was suspended in 100 μl of phosphate buffered saline-pH 7.2 (PBS) and plated on semi-selective J. Agar medium, containing Nalidixic and Pipemidic acid (Alippi, A M (1995) Detection of Bacillus larvae spores in Argentinian honeys by using a semi-selective medium. Microbiologia 1995 11(3): 343-50; and Govan, V A; Allsopp, M H; Davison, S A (1999) PCR Detection Method for Rapid Identification of Paenibacillus larvae. Applied and Environmental Microbiology 65(5): 2243-2245.
(§2) The plates were incubated at 33° C. in air containing 6% CO2 and 95% RH. The initial species identification was based on morphological, biological and cultural characteristics. The bacterial culture was tested for a catalase reaction (Leboffe, M. J and Pierce, B e (1999) A photographic atlas for the microbiology laboratory. Morton Publishing Company. 254 pp). The bacterial colonies were characterized by shape, margins and color. Gram-positive stained smears (Gram-stain Reagents Kit, EMD Chemicals Inc., NJ) were examined for morphological identification of vegetative cells and spores.
(§3) DNA based PCR identification was performed to corroborate identification of the bacterial species. Bacterial cells from culture plates were added directly to 30 μl of PCR reaction. The PCR primers used in the reaction were based on the 16S RNA sequence to selectively amplify a fragment of 973 by unique to P. larvae (Govan et al., 1999). The PCR products were visualized by 0.8% agarose gel electrophoresis in TAE buffer and ethidium bromide staining. The reference strains of bacteria were used as a control in PCR reactions and were provided by the National Center for Agricultural Research, Peoria, Ill. P. l. larvae (NRRL B-3560, B-2605) and P. l. palvifaciens (NRRL B-3688, B-3685, B-3689, NRS-1687, P. alvei B383).
(§4) Positive controls contained the antibiotic Tylosin (Tylan® 50, Elanco Animal Health Inc., IN) and negative controls contained no antibiotics. […] The optical densities of cultures (OD 600) were recorded 24 h and 48 h post inoculation, depending on the growth rate of the microbial species. […] Minimum bactericidal concentration values (NBC) were determined for allicin by plating out 100 μl of bacterial cultures derived from the MIC assay. […]
In general terms: Broth dilution looks for growth in wells or tubes with falling amounts of substance.

The subject of test [2] is Paenibacillus larvae subsp. pulvifaciens. Kind of test: MIC by broth microdilution, bee pathogens. It counts as cell-based. Conditions: range 1000 ppm to 0.25 ppm.
Description: as §1, §2, §3, §4

A further test has as its system Ascosphaera aggregata. Kind of test: MIC by broth microdilution, bee pathogens. It counts as cell-based. The settings on record: range 1000 ppm to 0.25 ppm.
Description: (§5) We tested allicia (Allisure™ Liquid) activity against several species of entomopathogenic bacteria (Paenibacillus larvae subsp. larvae, Paenibacillus larvae subsp. pulvifaciens) and fungi (Ascosphaera apis and Ascosphaera aggregata) using broth microdilution method to determine minimum inhibitory concentration (MIC) and the agar diffusion test (Kirby-Bauer) to determine zone of inhibition. Bacterial spores were isolated from the diseased honey bee larval samples. […]
(§6) Fungal spores (Ascosphaera apis) were collected from black honey bee mummies and (Ascosphaera aggregata) spores were collected from the diseased leaf cutter bees. […] The fungal colonies were analyzed by microscopic preparations of aerial mycelia and fungal spore cysts. […]
as §4

The subject of another test is Ascosphaera apis. Kind of test: MIC by broth microdilution, bee pathogens. It counts as cell-based. Conditions: range 1000 ppm to 0.25 ppm.
Description: as §5, §6, §4

A further test relates to P. l. pulvifaciens. Kind of test: Minimum bactericidal concentration by plating out MIC cultures. Conditions: range of 1000 ppm to 25 ppm. Type of test: cell-based, Paenibacillus larvae subsp. pulvifaciens. As to the method:
Positive controls contained the antibiotic Tylosin (Tylan® 50, Elanco Animal Health Inc., IN) and negative controls contained no antibiotics. Bacterial (P. l. larvae, P. l. pulviphaciens) or fungal (A. apis, A. aggregata) spores (100 μl of approximately 10^8-10^9 spores/ml) were added to a 2.5 ml of bacterial or fungal liquid medium containing serial dilutions of allicin. Cultures were incubated in a shaker at 35° C. and 215 rpm. The optical densities of cultures (OD 600) were recorded 24 h and 48 h post inoculation, depending on the growth rate of the microbial species. […] Minimum bactericidal concentration values (NBC) were determined for allicin by plating out 100 μl of bacterial cultures derived from the MIC assay. Plates were incubated 24 h and 48 h at 33° C. and 6% CO2 to observe microbial growth.

For another test, the system named is P. alvei. Kind of test: Investigation into bacteriostatic or bactericidal effects (Study 2). It counts as cell-based, Paenibacillus alvei. Conditions: conclusion from subculture into fresh media. The procedure: Where there was no growth in a replicate, at the end of one week the culture was plated out for single colonies on the appropriate agar. This was to determine whether the test item had bactericidal activity, where all the bacterial cells are killed, or bacteriostatic action, where the cells are unable to replicate in the presence of the substance, but will grow when it is removed. A further test, where 0.5 ml of the broth was transferred into 4.5 ml fresh broth (giving a 1:10 dilution) was also undertaken. There would still be some Allicin in the broth, but it should be present at a low enough concentration for growth not to be affected. Where growth occurred in the absence of Allicin, the broth was examined microscopically and plated out for single colonies to confirm the identity of the bacterium.

For test [3], the system named is GISA strain isolated from the UK mortality. In words: Standard agar diffusion test against a GISA strain. Type of test: cell-based, Staphylococcus aureus. From the text:
Allicin in a liquid form has been tested against the GISA strain isolated from the UK mortality. In a standard agar diffusion test the strain produced a zone of 37 mm at 500 ppm (FIG. 2) and 30 mm at 300 ppm.
On the technique in general: In agar diffusion tests the substance spreads into inoculated agar from a disc or well.

Test [4] deals with methicillin resistant Staphylococcus aureus (MRSA). The settings on record: certain species of MRSA; earlier application WO03/024437; cited from earlier work.

SMILES strings stand for the structures. Values after ≈ are worked out from the molar mass of the structure shown.

With `C=CCS[S+]([O-])CC=C` (stereo not drawn) [allicin, Allicin], in the test on Staph. Aureus (166 ppm (1:6 dilution)), the zone of inhibition at 166 ppm was found to be 0 mm. Also, the zone of inhibition at 1000 ppm with Staph. Aureus (1000 ppm) stood at 32 mm. Besides, the “zone of inhibition” value in the test on Salm. Enteriditis (166 ppm (1:6 dilution)) is listed as 0 mm; in the test on Salm. Enteriditis (1000 ppm) it was 22 mm. In addition, in the test with Ent. Hirae, the “allicin concentration at which inhibition was demonstrated on agar plates” value was at most 0.225 g/L. In addition, the MIC was 350 µg/mL (≈ 2160 µM) in test [1], 350 µg/mL (≈ 2160 µM) in [2], 250 µg/mL (≈ 1540 µM) in the test with Ascosphaera aggregata and 250 µg/mL (≈ 1540 µM) in the test with Ascosphaera apis. In the test with P. l. pulvifaciens, the “bacteriostatic or bactericidal activity” value was “only bacteriostatic (no bactericidal) activity”. Moreover, in the test with P. alvei, the “bacteriostatic or bactericidal effect” value is given as “did not kill all bacteria”. For the same molecule, in [3] (Staphylococcus aureus, 300 ppm, allicin in a liquid form), the zone of inhibition at 300 ppm amounted to 30 mm. The molecule also displayed a zone of inhibition at 500 ppm in test [3] (Staphylococcus aureus, 500 ppm, allicin in a liquid form) of 37 mm. Also, the “susceptibility of the GISA strain” value in [3] (recommended doses for topical use) was “fully susceptible”. Further, the “susceptibility of MRSA to allicin” value in [4] is “exceptionally susceptible”.

What is called zone of inhibition is the size of the clear area around the sample on an inoculated plate.
